# What was measured:
# [1] = target: T1, OR2AT4 (Homo sapiens, UniProt A6NND4); set-up: host or cells: keratinocytes; conditions: cited from earlier work
# T1 sequence (A6NND4 1-320): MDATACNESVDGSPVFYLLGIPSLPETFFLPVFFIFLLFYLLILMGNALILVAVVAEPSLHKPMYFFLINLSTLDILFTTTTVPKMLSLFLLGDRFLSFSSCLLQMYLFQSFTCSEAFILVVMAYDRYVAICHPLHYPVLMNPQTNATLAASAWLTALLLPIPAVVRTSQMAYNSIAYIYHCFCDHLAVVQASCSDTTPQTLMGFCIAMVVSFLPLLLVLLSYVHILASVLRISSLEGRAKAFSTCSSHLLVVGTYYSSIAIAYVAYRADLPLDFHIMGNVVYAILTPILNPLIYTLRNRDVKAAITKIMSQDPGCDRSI
# [2] = tested on: HaCaT-OR2AT4-Myc-DDK transfectants; assay: XTT cell proliferation assay in HaCaT-OR2AT4-Myc-DDK transfectants; format: cell-based, human; conditions: 250 µM, days 1, 3 and 5, compared to vehicle (Control)
# [3] = target: T1, OR2AT4; assay: CRE-luciferase reporter activity assay in 293 cells stably expressing OR2AT4; format: cell-based; set-up: GeneScript (pcDNA3.1-Hygro for GNAL); conditions: synthetic odorants 400 µM, 4 hours, clone 293-OR2AT4-Golf-clone#2
# Excerpt: • Figure 1. Generation of a 293 clone that stably expresses the OR2AT4 receptor. The 293-OR2AT4-Golf transfectant was generated by means of calcium phosphate cotransfection into 293 cells of the expression plasmids for the OR2AT4 receptor (NM_001005285, pCMV6-Entry-OR2AT4-Neo; Origene) and for the Golf subunit of G proteins, generated by means of subcloning the hGNAL gene (NM_001261443.1) into the expression plasmid (pcDNA3.1-Hygro, GeneScript). Stable transfectants were selected on medium containing neomycin and hygromycin B, and clone 293-OR2AT4-Golf-clone#2 was obtained by limiting dilution. […] Replicates of the reactions for the target and housekeeping genes, which were performed simultaneously for each template cDNA analysed, were included in triplicate. […] Data normalisation was calculated by means of the formula [Luc/Renilla(N)-Luc/Renilla(lowest)]/[Luc/Renilla(highest)-Luc/Renilla(lowest)]. […] Means were calculated using three replicates per condition, n=3. […] Statistical significance was determined using Student's t test (*p<0.05 and **p<0.001, with respect to control). […] The anti proliferative effect of the aptamers on the K562 cell line was evaluated in a colorimetric proliferation assay based on the reduction of tetrazolium salts (XTT). […]
# [4] = tested on: telogen effluvium; conditions: solution containing 1% Sandalore applied for 24 weeks, 60 patients with telogen effluvium; cited from earlier work
# [5] = tested on: human hair follicles; conditions: ex vivo; cited from earlier work
cAMP production (normalised luciferase activity) [3],Compound,activation of the OR2AT4 receptor expressed in keratinocytes [1],cell proliferation [2],"degree of hair loss, hair volume, terminal/vellous hair ratio, anagen/catagen-telogen ratio, patient's self-esteem [4]",apoptosis [5],hair growth [5],production of the growth factor IGF-1 [5]
activated cAMP production,"CC1=CCC(CCC(C)CO)C1(C)C (stereo not shown) [Brahmanol, sandal cyclopentane]",capable of activating the OR2AT4 receptor,significant proliferative response,–,–,–,–
activated cAMP production,"CC1=CCC(CCC(C)C(C)O)C1(C)C (stereo not shown) [Sandalore, sandal pentanol]",capable of activating the OR2AT4 receptor,significant proliferative response,improvement,reducing apoptosis,promotes hair growth,increasing the production

# — patent EP4656722A1, “OR2AT4 RECEPTOR AGONIST APTAMERS AND USES THEREOF” (Fundacion Instituto De Investigacion Sanitaria Fundacion …, priority 2024, dated 2025)
